IC50 and Kd data for 20 compounds are collected here from patent US20260070899A1, “N-(2-(4-CYANOTHIAZOLIDIN-3-YL)-2-OXOETHYL)-QUINOLINE-4-CARBOXAMIDES” (AstraZeneca AB, priority 2022, published 2026).

What all share (assay): biochemical
Experiment [1] has as its target T1, Prolyl endopeptidase, Prolyl Oligopeptidase (hPREP) (Homo sapiens, UniProt P48147).
T1 sequence (P48147 1-710): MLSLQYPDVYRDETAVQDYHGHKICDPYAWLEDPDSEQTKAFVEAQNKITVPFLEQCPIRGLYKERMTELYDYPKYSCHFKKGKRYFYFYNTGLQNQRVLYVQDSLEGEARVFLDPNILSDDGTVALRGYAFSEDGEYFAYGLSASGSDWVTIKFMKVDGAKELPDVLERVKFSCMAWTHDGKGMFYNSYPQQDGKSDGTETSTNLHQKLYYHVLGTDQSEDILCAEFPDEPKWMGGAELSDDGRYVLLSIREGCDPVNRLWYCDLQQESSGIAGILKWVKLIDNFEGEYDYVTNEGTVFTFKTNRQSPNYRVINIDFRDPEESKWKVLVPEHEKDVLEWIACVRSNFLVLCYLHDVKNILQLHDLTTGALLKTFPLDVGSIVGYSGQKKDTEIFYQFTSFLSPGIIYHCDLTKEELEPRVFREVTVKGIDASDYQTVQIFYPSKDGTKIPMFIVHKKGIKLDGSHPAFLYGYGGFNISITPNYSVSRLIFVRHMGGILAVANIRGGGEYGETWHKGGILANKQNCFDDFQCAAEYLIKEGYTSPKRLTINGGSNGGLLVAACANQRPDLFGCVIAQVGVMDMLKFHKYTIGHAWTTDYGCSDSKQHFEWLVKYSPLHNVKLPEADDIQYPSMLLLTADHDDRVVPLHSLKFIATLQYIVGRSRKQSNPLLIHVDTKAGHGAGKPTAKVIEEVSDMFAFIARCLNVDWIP
Protocol: Compounds were tested in a biochemical inhibition assay using Prolyl endopeptidase, Prolyl Oligopeptidase (hPREP) enzyme at 0.6 nM FAC (R&D Systems, 4308-SE) and the substrate Z-Gly-Pro-amino-methylcoumarin (Bachem, I-1145) at 50 μM FAC. 384 Low volume black plates (Greiner #784076) were used. […] Plates were incubated for 15 min at rt in dark. 4 μL, 100 μM substrate solution (25 mM Tris HCl, 250 mM NaCl, 0.01% Triton X-100, 5 mM Glutathione, pH 7.5) was added to each well. Plates were centrifuged at 1000 rpm and incubated for 20 min at rt in dark. The plates were read on a PHERAstar® reader with excitation 340 nm and emission 460 nm. Data were analyzed in Genedata Screener®. IC50 values were determined by plotting % inhibition versus log compound concentration and using a one site dose response model.

Experiment [2] addresses T2, hFAP (M39-A757) (Homo sapiens, UniProt Q12884).
T2 sequence (Q12884 39-757): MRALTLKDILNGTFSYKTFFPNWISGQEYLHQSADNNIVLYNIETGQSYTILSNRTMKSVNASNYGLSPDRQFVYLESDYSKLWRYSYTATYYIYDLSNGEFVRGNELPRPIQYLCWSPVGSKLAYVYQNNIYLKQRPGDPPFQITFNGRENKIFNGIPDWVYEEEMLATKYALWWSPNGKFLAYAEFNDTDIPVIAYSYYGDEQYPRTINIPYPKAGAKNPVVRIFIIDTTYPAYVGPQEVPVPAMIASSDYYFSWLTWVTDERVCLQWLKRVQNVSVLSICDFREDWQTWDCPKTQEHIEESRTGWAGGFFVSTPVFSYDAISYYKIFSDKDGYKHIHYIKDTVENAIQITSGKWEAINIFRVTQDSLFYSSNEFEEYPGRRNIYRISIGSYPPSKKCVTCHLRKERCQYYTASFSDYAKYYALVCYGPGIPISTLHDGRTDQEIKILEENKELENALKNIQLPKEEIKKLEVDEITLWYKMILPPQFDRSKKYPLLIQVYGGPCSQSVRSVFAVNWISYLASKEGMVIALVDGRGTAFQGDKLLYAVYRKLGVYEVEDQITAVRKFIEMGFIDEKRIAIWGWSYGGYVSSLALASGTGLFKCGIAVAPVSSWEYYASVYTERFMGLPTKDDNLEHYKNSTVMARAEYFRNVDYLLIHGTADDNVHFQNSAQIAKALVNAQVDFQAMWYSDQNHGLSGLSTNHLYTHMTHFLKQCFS

The target of experiment [3] is T3, hFAP (Homo sapiens, UniProt Q12884).
T3 sequence (Q12884 38-760): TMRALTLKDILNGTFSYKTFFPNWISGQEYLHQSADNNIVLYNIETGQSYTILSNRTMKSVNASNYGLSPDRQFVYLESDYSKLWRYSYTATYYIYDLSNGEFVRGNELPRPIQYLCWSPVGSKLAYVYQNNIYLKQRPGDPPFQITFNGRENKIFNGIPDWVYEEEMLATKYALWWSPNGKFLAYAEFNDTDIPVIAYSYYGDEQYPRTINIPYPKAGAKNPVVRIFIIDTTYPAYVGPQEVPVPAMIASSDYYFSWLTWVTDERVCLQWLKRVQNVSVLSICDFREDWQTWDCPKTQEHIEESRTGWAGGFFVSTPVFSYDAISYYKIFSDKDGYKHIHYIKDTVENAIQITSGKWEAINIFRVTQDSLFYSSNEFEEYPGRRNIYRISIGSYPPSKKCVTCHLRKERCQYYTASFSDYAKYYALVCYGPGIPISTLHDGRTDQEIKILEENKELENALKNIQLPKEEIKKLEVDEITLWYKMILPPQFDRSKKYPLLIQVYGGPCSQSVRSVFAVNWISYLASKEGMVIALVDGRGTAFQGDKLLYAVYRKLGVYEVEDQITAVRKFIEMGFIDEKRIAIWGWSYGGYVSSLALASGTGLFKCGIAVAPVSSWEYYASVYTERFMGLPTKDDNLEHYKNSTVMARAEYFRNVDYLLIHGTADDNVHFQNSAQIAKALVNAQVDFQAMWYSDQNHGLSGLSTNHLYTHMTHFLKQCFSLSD
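For Kd in this document: surface plasmon resonance direct binding to hFAP amine-coupled on a sensor chip, rising compound concentrations by single cycle kinetics, Kd from global fit of interaction models.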
Protocol: 384 low volume black plates (Greiner #784076) were used. 4 μL, 0.48 nM enzyme solution (100 mM Tris HCl, 100 mM NaCl, 0.05% Chaps, pH 7.4) was added to 40 nL compounds (in DMSO) at 10 CR, 3 fold dilution series from 50 μM FAC. Plates were incubated for 15 min at rt in dark. 4 μL, 40 μM substrate solution (100 mM Tris HCl, 100 mM NaCl, 0.05% Chaps, pH 7.4) was added to each well. Plates were centrifuged at 1000 rpm and incubated for 30 min at rt in dark. The plates were read on a PHERAstar® reader with excitation 340 nm and emission 460 nm. Data were analyzed in Genedata Screener®. IC50 values were determined by plotting % inhibition versus log compound concentration and using a one site dose response model.

As a reminder, the IC50 is the concentration at which inhibition is half-maximal. As a reminder, the Kd is the concentration at which binding is half-saturated. A low value points to a tighter complex. `CC(c1ccc2nccc(C(=O)NCC(=O)N3CSC[C@H]3C#N)c2c1)c1ncccc1F` (mixture of isomers) [Example 12, N-(2-((R)-4-Cyanothiazolidin-3-yl)-2-oxoethyl)-6-((RS)-1-(3-fluoropyridin-2-yl)ethyl)quinoline-4-carboxamide] showed an IC50 in experiment [1] of 110 nM. In experiment [2], this compound displayed a dissociation constant Kd of 0.19 nM.
Turning to `CC(O)c1ccc2nccc(C(=O)NCC(=O)N3CSC[C@H]3C#N)c2c1` (mixture of isomers) [Example 25, N-(2-((R)-4-Cyanothiazolidin-3-yl)-2-oxoethyl)-6-((RS)-1-hydroxyethyl)quinoline-4-carboxamide], the half-inhibitory concentration (IC50) in experiment [3] was found to be 0.66 nM; in experiment [1] it was 440 nM. In addition, binding in experiment [2] was characterised by a dissociation constant (Kd) of 0.8 nM.
In the case of `COC(C)c1ccc2nccc(C(=O)NCC(=O)N3CSC[C@H]3C#N)c2c1` (mixture of isomers) [Example 26, N-(2-((R)-4-Cyanothiazolidin-3-yl)-2-oxoethyl)-6-((RS)-1-methoxyethyl)quinoline-4-carboxamide], the IC50 in experiment [3] came out at 0.84 nM; in experiment [1], 470 nM. Besides, the Kd in experiment [2] worked out at 4.7 nM.
Regarding `COCC(OC)c1ccc2nccc(C(=O)NCC(=O)N3CSC[C@H]3C#N)c2c1` (mixture of isomers) [Example 30, N-(2-((R)-4-Cyanothiazolidin-3-yl)-2-oxoethyl)-6-((RS)-1,2-dimethoxyethyl)quinoline-4-carboxamide], the IC50 in experiment [3] amounted to 1.7 nM; in experiment [1] it was 1700 nM. In experiment [2], this compound registered a Kd of 0.63 nM.
In turn, `Cc1cc(C(C)c2ccc3nccc(C(=O)NCC(=O)N4CSC[C@H]4C#N)c3c2)no1` (mixture of isomers) [Example 46, N-(2-((R)-4-Cyanothiazolidin-3-yl)-2-oxoethyl)-6-((RS)-1-(5-methylisoxazol-3-yl)ethyl)quinoline-4-carboxamide] displayed an IC50 in experiment [1] of 80 nM. The compound also yielded a dissociation constant Kd in experiment [2] of 0.13 nM.
In experiment [1], `N#C[C@@H]1CSCN1C(=O)CNC(=O)c1ccnc2ccc(CC3CCOC3)cc12` (mixture of isomers) [Example 65, N-(2-((R)-4-Cyanothiazolidin-3-yl)-2-oxoethyl)-6-(((RS)-tetrahydrofuran-3-yl)methyl)quinoline-4-carboxamide] displayed a half-maximal inhibitory concentration (IC50) of 210 nM. In experiment [2], this compound showed an equilibrium dissociation constant (Kd) of 0.091 nM.
For `CO[C@H]1C[C@](F)(c2ccc3nccc(C(=O)NCC(=O)N4CSC[C@H]4C#N)c3c2)C1` (single isomer, unassigned) [Example 62, N-(2-((R)-4-Cyanothiazolidin-3-yl)-2-oxoethyl)-6-((1r,3R*)-1-fluoro-3-methoxycyclobutyl)quinoline-4-carboxamide], in that order: 520 nM and 0.11 nM.
For `CO[C@H]1C[C@](F)(c2ccc3nccc(C(=O)NCC(=O)N4CSC[C@H]4C#N)c3c2)C1` (single isomer, unassigned) [Example 63, N-(2-((R)-4-Cyanothiazolidin-3-yl)-2-oxoethyl)-6-((1r,3R*)-1-fluoro-3-methoxycyclobutyl)quinoline-4-carboxamide], in that order: 330 nM and 0.097 nM.
In experiment [1], `N#C[C@@H]1CSCN1C(=O)CNC(=O)c1ccnc2ccc(CN3CCOCC3)cc12` [Example 24, (R)—N-(2-(4-Cyanothiazolidin-3-yl)-2-oxoethyl)-6-(morpholino-methyl)quinoline-4-carboxamide] had an IC50 of 1000 nM. The compound further yielded a dissociation constant Kd in experiment [2] of 0.33 nM.
The corresponding values for `COCCOCc1ccc2nccc(C(=O)NCC(=O)N3CSC[C@H]3C#N)c2c1` [Example 31, (R)—N-(2-(4-Cyanothiazolidin-3-yl)-2-oxoethyl)-6-((2-methoxyethoxy)-methyl)quinoline-4-carboxamide] are 910 nM and 0.4 nM.
Consider `N#C[C@@H]1CSCN1C(=O)CNC(=O)c1ccnc2ccc(C3(c4ncccc4F)CC3)cc12` [Example 44, (R)—N-(2-(4-Cyanothiazolidin-3-yl)-2-oxoethyl)-6-(1-(3-fluoropyridin-2-yl)cyclopropyl)quinoline-4-carboxamide], for which it took 65 nM to reach half-maximal inhibition in experiment [1] (IC50). The compound also registered a dissociation constant (Kd) in experiment [2] of 0.14 nM.
The corresponding values for `N#C[C@@H]1CSCN1C(=O)CNC(=O)c1ccnc2ccc(C3(c4ccc(Cl)cn4)CC3)cc12` [Example 47, (R)-6-(1-(5-Chloropyridin-2-yl)cyclopropyl)-N-(2-(4-cyanothiazolidin-3-yl)-2-oxoethyl)quinoline-4-carboxamide] are 240 nM and 0.22 nM.
In experiment [1], `C#CC1(c2ccc3nccc(C(=O)NCC(=O)N4CSC[C@H]4C#N)c3c2)CCOCC1` [Example 57, (R)—N-(2-(4-Cyanothiazolidin-3-yl)-2-oxoethyl)-6-(4-ethynyl-tetrahydro-2H-pyran-4-yl)quinoline-4-carboxamide] gave a half-inhibitory concentration (IC50) of 790 nM. In other words, the sub-micromolar range.
In the case of `N#C[C@@H]1CSCN1C(=O)CNC(=O)c1ccnc2ccc(C3(F)CCOCC3)cc12` [Example 64, (R)—N-(2-(4-Cyanothiazolidin-3-yl)-2-oxoethyl)-6-(4-fluorotetrahydro-2H-pyran-4-yl)quinoline-4-carboxamide], in experiment [1], the half-inhibitory concentration (IC50) stood at 300 nM. In experiment [2], the dissociation constant Kd came out at 0.042 nM.
As for `CCCOc1ccc2nccc(C(=O)NCC(=O)N3CSC[C@H]3C#N)c2c1` [Example 73, (R)—N-(2-(4-Cyanothiazolidin-3-yl)-2-oxoethyl)-6-propoxyquinoline-4-carboxamide], the IC50 in experiment [1] amounted to 160 nM.
Same read-out and setting: the figure for `N#C[C@@H]1CSCN1C(=O)CNC(=O)c1ccnc2ccc(OCCF)cc12` [Example 74, (R)—N-(2-(4-Cyanothiazolidin-3-yl)-2-oxoethyl)-6-(2-fluoroethoxy)-quinoline-4-carboxamide] is 83 nM; for `N#C[C@@H]1CSCN1C(=O)CNC(=O)c1ccnc2ccc(C3(F)CCC3)cc12` [Example 75, (R)—N-(2-(4-Cyanothiazolidin-3-yl)-2-oxoethyl)-6-(1-fluoro-cyclobutyl)quinoline-4-carboxamide] it is 46 nM.
In turn, `N#C[C@@H]1CSCN1C(=O)CNC(=O)c1ccnc2ccc(Cn3cccn3)cc12` [Example 80, (R)-6-((1H-Pyrazol-1-yl)methyl)-N-(2-(4-cyanothiazolidin-3-yl)-2-oxoethyl)quinoline-4-carboxamide] displayed an IC50 in experiment [1] of 290 nM. In experiment [2], this compound showed a dissociation constant (Kd) of 0.3 nM.
`COCCCc1ccc2nccc(C(=O)NCC(=O)N3CSC[C@H]3C#N)c2c1` [Example 81, (R)—N-(2-(4-cyanothiazolidin-3-yl)-2-oxoethyl)-6-(3-methoxypropyl)quinoline-4-carboxamide] yielded an IC50 in experiment [1] of 62 nM.
The compound `COCCc1ccc2nccc(C(=O)NCC(=O)N3CSC[C@H]3C#N)c2c1` [Example 82, (R)—N-(2-(4-cyanothiazolidin-3-yl)-2-oxoethyl)-6-(2-methoxyethyl)quinoline-4-carboxamide] showed an IC50 in experiment [1] of 48 nM. This IC50 and that of the compound before are within 1.5-fold of each other.
